Measured values from US20040005648A1, “PYK2 related products and methods” (Sugen, Inc., priority 1994, published 2004).
Entries after “also recorded” stand apart in the source; their conditions may differ. Like-named read-outs stand apart in the source and are kept apart here.

Experiments:
Shc = assay: Tyrosine phosphorylation of Shc in stimulated PC12 cells (anti-Shc immunoprecipitation, anti-phosphotyrosine immunoblot); assay type: cell-based, rat; details: for effect on carbachol induced tyrosine phosphorylation of Shc: antagonist
Method: Tyrosine phosphorylation of Shc in response to bradykinin, carbachol, PMA and other stimuli was also measured. Quiescent PC12 cells were stimulated for 5 min at 37° C. with bradykinin (1AM), carbachol (1 mM), KC1 (75 mM), PMA (1.6pM), NGF (100 ng/ml), or left unstimulated (−). The cells were also stimulated with carbachol (1 mM) or potassium chloride (75 mM) in the presence of 3 mM EGTA. Stimulations with DMPP (100 μM) or muscarine (1 mM) were preformed under the same conditions. […] The Shc proteins were immunoprecipitated with anti-Shc antibodies, the immunoprecipitates were resolved by SDS-PAGE (8%1, transferred to nitrocellulose and immunoblotted with anti-phosphotyrosine antibodies.

PYK2 [1] = assay: Tyrosine phosphorylation of PYK2 in stimulated PC12 cells (anti-PYK2 immunoprecipitation, anti-phosphotyrosine immunoblot); assay type: cell-based, rat
Kv1.2 potassium channel = assay: Tyrosine phosphorylation of Kv1.2 potassium channel in 293 cells coexpressing PYK2; assay type: cell-based, human; details: 293 cells coexpressing Kv1.2-HA and PYK2; PMA 1.6 μM, calcium ionophore 6 μM
PYK2 [2] = assay: Tyrosine phosphorylation of PYK2 in transiently transfected 293 cells; assay type: cell-based, human; details: PMA 1.6 μM, calcium ionophore 6 μM
Method: We examined the possibility whether PYK2 can tyrosine phosphorylate the Kv1.2 channel and regulate its function. In order to test this possibility, we expressed in 293 cells the Kv1.2 protein, Kv1.2 together with PYK2, and as a control Kv1.2 with a kinase negative PYK2 mutant (PKN) or with the protein tyrosine kinase Fak. The cells were grown for 24 hours in medium containing 0.2% serum and then stimulated with PMA (1.6 μM), calcium ionophore (6 μM), or left unstimulated.
Embryonic human kidney 293 cells were transiently transfected with different combinations of mammalian expression vectors which direct the synthesis of Kv1.2-HA, PYK2, a kinase negative PYK2 (PKN) or the protein tyrosine kinase Fak. The cells were grown for 24 h in the presence of 0.2% serum and then either stimulated with PMA (1.6 μM, 10 min at 37° C.), the calcium ionophore A23187 (6 μM, 10 min at 37° C.) or left unstimulated (−).
Tyrosine phosphorylation of each protein was analysed following immunoprecipitation and immunoblotting with anti-phosphotyrosine antibodies. The expression of each protein was determined by immunoblot analysis of total cell lysates from each transfection with anti-PYK2, anti-HA or anti-Fak antibodies.

Kv1.2 channel [3] = details: after 20 min incubation; as previously shown (Huang et al.); cited from earlier work
Kv1.2 channel [4] = assay: Kv1.2 currents in microinjected Xenopus oocytes, two microelectrode voltage-clamp; assay type: cell-based, Xenopus laevis; details: for inhibition of outward current: 8 min after addition of 100 nM PMA
Method: In vitro capped RNA transcripts of Kv1.2, PYK2 and PKN were synthesized from linearized plasmids DNA templates utilizing the mMESSAGE MMACHINE kit (Ambion), following the supplier's protocols. The products of the transcription reaction (cRNAs) were diluted in RNAse-free water and stored at −70° C. Expression of the RNAs was done by injection of 50nl of RNA into defolliculated stage V and VI oocytes from Xenopus laevis (Iverson et al., J. Neurosc. 10, 2903-2916, 1990). The injected oocytes were incubated for 2-3 days at 20° C. in L15 solution (1:2 dilution of Gibco's Leibovitz L15 medum in H20, with 50U/ml nystatin, 0.1 mg/ml gentamycin, 30 mM HEPES buffer, pH 7.3-7.4, filtered through a […] membrane). Electrophysiological Recording and analysis. Ionic currents were recorded with a two microelectrode voltage-clamp as described (Iverson et al., suDra). The current were low-pass filtered KHz using an 8-pole Bessel filter and stored in a 80286 microcomputer using the pclamp acquisition system (Axon Instruments). The data was analyzed with the clamp fit pro-rams of the pCIamp system (Axon Instruments). All recording were performed at room temperature ([…]). The recording chamber was continually perfused with recording solution. To avoid contamination of the oocyte by Ca+^2-activated Cl^− currents low Cl^− recording solution was used (96 mM Na+, glutamate, 2 mM K^+ glutamate, 0.5 mM CaCl2, 5 mM MgCl2, 5 mM HEPES buffer). The K^+ currents were elicited in depolarizinc, steps from −100 to +40 mv in 10 mV increments every 15 seconds.
Kv1.2 currents from oocytes microinjected with either Kv1.2 mRNA, Kv1.2 and PYK2 mRNAs, or Kv1.2 and a kinase negative mutant of PYK2 mRNAs (PKN). Currents were elicited in response to depolarizing steps from −100 to +30 mV increments from a holding potential of −110 mV. Representative traces of Kv1.2 channels before and after bath application of 100 nM PMA at the annotated time (8 and 20 minutes) in the same cell.
Suppression of Kv1.2 currents in response to PMA is blocked by a kinase negative PYK2 mutant (PKN). […]

PYK-2 = assay: Tyrosine phosphorylation of PYK-2 in NIH3T3 cell lines that overexpress PYK-2; assay type: cell-based, mouse; details: NIH3T3 cells overexpressing PYK-2 / PYK-2-HA; TPA 6 μM, 15 min at 37° C.
Method: Stable cell lines of NIH3T3 that overexpress PYK2 were established by contransfection of PYK2 subcloned into pLSV together with pSV2neo utilizing lipofectamine reagent (GIBCO BRL). Following transfection the cells were grown in Dulbecco's modified Eagle's medium containing 10% fetal bovine serum and 1 mg/ml G418. Transient transfections into 293 cells were performed by using the calcium phosphate technique (*).
The PYK-2 cDNA cloned in PLSV was cotransfected with pSV2neo into PC12 cells and NIH3T3 in order to establish stable cell lines. G418 resistant colonies were screened by immunoprecipitating and immunoblotting.
NIH3T3 cell lines were established that overexpress the PYK-2 and the PYK-2-HA protein. […] The level of phosphorylation is not so high.

[5] = PC12 cells, agent alone, 37° C., b373: TPA 15 min, bradykinin 1 μM 1 min, A23187 2 μM 15 min, KCl 75 mM

## C[N+]1(C)CCN(c2ccccc2)CC1.[I-] [DMPP, 1,1-dimethyl-4-phenyl piperazinium iodide]
Shc
  tyrosine phosphorylation of Shc in response to the agent: induced phosphorylation of Shc

## O=C(O)CN(CCOCCOCCN(CC(=O)O)CC(=O)O)CC(=O)O [EGTA, ethyleneglycol-bis (P-aminoethyl ether)-N,N,N′N′-teraacetic acid]
PYK2 [1]; PC12 cells, elimination of extracellular calcium, EGTA 3 mM
  effect on agonist (carbachol) induced tyrosine phosphorylation of PYK2: completely blocked agonist induced tyrosine phosphorylation of PYK2

## [Cl-].[K+] [KCl, potassium chloride]
PYK2 [1]; [5]
  tyrosine phosphorylation of PYK2 in response to the agent: induces rapid tyrosine phosphorylation of PYK2

## CCCCCCCCCCCCCC(=O)O[C@@H]1[C@@H](C)[C@@]2(O)[C@@H](C=C(CO)C[C@]3(O)C(=O)C(C)=C[C@@H]23)[C@@H]2C(C)(C)[C@]12OC(C)=O [PMA, phorbol 12-myristate 13-acetate]
Kv1.2 potassium channel
  tyrosine phosphorylation of Kv1.2: enhanced
PYK2 [2]
  tyrosine phosphorylation of PYK2 in response to the agent: induced tyrosine phosphorylation
Kv1.2 channel [3]
  inhibition of Kv1.2 currents: 80-90%
Kv1.2 channel [4]; oocytes coexpressing Kv1.2 and PYK2
  inhibition of outward current: 95%
Kv1.2 channel [4]; oocytes expressing Kv1.2 alone
  inhibition of outward current: 25%
Kv1.2 channel [4]; oocytes expressing Kv1.2
  effect on Kv1.2 currents: caused inhibition of Kv1.2 currents
PYK2 [1]; PC12 cells pretreated with 100 nM PMA for 12 h
  effect of prolonged PMA treatment (down-regulation of PKC) on the agent-stimulated tyrosine phosphorylation of PYK2: completely abolished the effect of PMA
PYK2 [1]; [5]
  tyrosine phosphorylation of PYK2 in response to the agent: induced tyrosine phosphorylation of PYK2
PYK2 [1]; PC12 cells, agent alone, 37° C., b373: TPA 15 min, bradykinin 1 μM 1 min, A23187 2 μM 15 min, KCl 75 mM, listed as TPA
  tyrosine phosphorylation of PYK2 in response to the agent: undergoes tyrosine phosphorylation

## CN1[C@@H]2CC[C@H]1C[C@@H](OC(=O)C(CO)c1ccccc1)C2 (stereo partly drawn) [atropine]
Shc
  effect on carbachol induced tyrosine phosphorylation of Shc: had no effect

## CNc1ccc2oc(C[C@H]3O[C@@]4(CC[C@H]3C)O[C@H]([C@H](C)C(=O)c3ccc[nH]3)[C@H](C)C[C@H]4C)nc2c1C(=O)O [calcium ionophore A23187]
Kv1.2 potassium channel
  tyrosine phosphorylation of Kv1.2: enhanced
PYK2 [2]
  tyrosine phosphorylation of PYK2 in response to the agent: induced a weaker response
PYK2 [1]; [5]
  tyrosine phosphorylation of PYK2 in response to the agent: undergoes tyrosine phosphorylation; also recorded: PYK2 is phosphorylated on tyrosine residues

## C[N+](C)(C)CCOC(N)=O [carbachol]
PYK2 [1]; PC12 cells
  time after applying the agent at which PYK2 became phosphorylated on tyrosine residues: 5 s
PYK2 [1]; [5]
  tyrosine phosphorylation of PYK2 in response to the agent: induces strong, tyrosine phosphorylation of PYK2
Shc; transient, followed by a rapid decline
  time of maximum tyrosine phosphorylation of Shc: one

## CNC1(C)C2CCC(C2)C1(C)C (stereo not drawn) [mecamylamine]
Shc
  effect on carbachol induced tyrosine phosphorylation of Shc: blocked the effect of carbachol

## C[C@@H]1O[C@H](C[N+](C)(C)C)C[C@H]1O [muscarine]
Shc
  tyrosine phosphorylation of Shc in response to the agent: had no effect

## Cholera toxin
PYK2 [1]
  effect on the PYK-2 tyrosine phosphorylation response to TPA / bradykinin: gave higher signal in combination with TPA and bradykinin
  tyrosine phosphorylation of PYK2 in response to the agent: didn't cause phosphorylation of PYK-2 alone

## PDGF
PYK-2
  tyrosine phosphorylation of PYK-2 in response to the agent: undergoes tyrosine phosphorylation

## Pertusis toxin: toxin known to positively regulate G-coupled receptor signalling
PYK2 [1]; [5]
  tyrosine phosphorylation of PYK2 in response to the agent: didn't cause any response alone
PYK2 [1]; PC12 cells, agent in combination with TPA or bradykinin
  effect on the PYK-2 tyrosine phosphorylation response to TPA / bradykinin: induced the response of TPA and bradykinin

## aFGF: growth factor stimulus
PYK-2
  tyrosine phosphorylation of PYK-2 in response to the agent: undergoes tyrosine phosphorylation
